Data from patent publication US10336792B2, “Antimicrobial peptide dendrimers” (priority 2014, dated 2019).

Test system: P. aeruginosa PEJ2.6, PEJ9.1, ZEM1.A, ZEM9.A (clinical isolates)
Format: cell-based, Pseudomonas aeruginosa
Conditions: MH medium, 12-18 h
Method: Antimicrobial activity was assayed against P. aeruginosa PA01 (WT), P. aeruginosa PT1482 (A-), PT1485 (A-B-), PT1149 (A-B-C-algC), PT331 (Z61) (LPS mutants), P. aeruginosa PEJ2.6, PEJ9.1, ZEM1.A, ZEM9.A (clinical isolates from Université de Genève/Centre Médical Universitaire), Burkholderia cenocepacia (B. ceno), Staphylococcus aureus (S. aureus, MRSA strain) and Acinetobacter baumannii (A. baum) (clinical isolates from Université de Genève/Centre Médical Universitaire). To determine the minimal inhibitory concentration (MIC), microdilution broth method was used. A colony of bacteria was grown in MH-medium overnight at 37° C. The samples were prepared as stock solutions of 8 mg mL^−1 in H2O, diluted to the beginning concentration of 32, 64, 128 or 256 μg/mL in 300 μL MH-medium, added to the first well of 96-well microtiterplate (TPP, untreated) and diluted serially by ½. The concentration of the bacteria was quantified by measuring absorbance at 600 nm and diluted to OD600=0.022 in MH-medium. The sample solutions (150 μL) were mixed with 4 μL diluted bacterial suspension with a final inoculation of about of 5×10^5 CFU. The plates were incubated at 37° C. until satisfactory growth (˜18 h). For each test, two columns of the plate were kept for sterility control (SC, broth only) and growth control (GC, broth with bacterial inoculums, no antibiotics). The minimal inhibitory concentration (MIC) was defined as the lowest concentration of the antimicrobial substance (peptide dendrimer) that inhibited visible growth of the tested bacteria with the unaided eye. For microbiological study Polymyxin was used as references.
Ten of the most promising compounds (FIG. 5) were tested for their efficiency against four clinical isolates of P. aeruginosa (ZEM9.A, ZEM1.A, PEJ2.6, PEJ9.1), one S. aureus (COL, MRSA reference strain) and one A. baumannii strain. For the experiments in Genève the peptide dendrimers and reference compounds (polymyxin) were dissolved in PBS and the assay was carried out in Müller-Hinton (MH) broth with a two-fold dilution.

## Polymyxin B [reference compound]
  MIC P. aeruginosa MDR clinical isolate PEJ2.6: 1 mg/L
  MIC P. aeruginosa MDR clinical isolate PEJ9.1: 2 mg/L
  MIC P. aeruginosa MDR clinical isolate ZEM1A: <1 mg/L
  MIC P. aeruginosa MDR clinical isolate ZEM9A: 8 mg/L
